Assay results: the NIST ThermoML archive (doi:10.1021/acs.jced.8b00250)
Numbers after ± are expanded uncertainties.

Assay: mn = molality of the nth substance listed, in mol/kg
Conditions: 298.15 K, 101.3 kPa, Liquid, Alternating current cell with electrodes

With `CCCCC(CC)COC(=O)CC(C(=O)OCC(CC)CCCC)S(=O)(=O)[O-].[Na+]` (stereo unspecified) [sodium bis(2-ethylhexyl) sulfosuccinate] + O the electrical conductivity (m1 = 0.1687) was 0.00147 ± 5.9e-05 S/m, the electrical conductivity (m1 = 0.5229) was 0.00389 ± 0.00016 S/m and the electrical conductivity (m1 = 0.8008) was 0.00578 ± 0.00023 S/m. The electrical conductivity (m1 = 1.108) was 0.00786 ± 0.00031 S/m, the electrical conductivity (m1 = 1.374) was 0.00965 ± 0.00039 S/m and the electrical conductivity (m1 = 1.663) was 0.0116 ± 0.00046 S/m. It also gave an electrical conductivity (m1 = 2.015) of 0.0139 ± 0.00056 S/m, an electrical conductivity (m1 = 2.327) of 0.0161 ± 0.00065 S/m and an electrical conductivity (m1 = 2.661) of 0.0184 ± 0.00074 S/m. For the same molecule, the electrical conductivity (m1 = 3.026) was 0.0213 ± 0.0009 S/m, the electrical conductivity (m1 = 3.398) was 0.0239 ± 0.001 S/m and the electrical conductivity (m1 = 3.654) was 0.0258 ± 0.001 S/m. For the same molecule, the electrical conductivity (m1 = 3.95) was 0.0279 ± 0.0011 S/m, the electrical conductivity (m1 = 4.202) was 0.0296 ± 0.0012 S/m and the electrical conductivity (m1 = 4.434) was 0.0313 ± 0.0013 S/m. The electrical conductivity (m1 = 4.65) was 0.0328 ± 0.0013 S/m, the electrical conductivity (m1 = 4.896) was 0.0345 ± 0.0014 S/m and the electrical conductivity (m1 = 5.165) was 0.0363 ± 0.0015 S/m. It also gave an electrical conductivity (m1 = 5.513) of 0.0387 ± 0.0015 S/m and an electrical conductivity (m1 = 5.782) of 0.0405 ± 0.0016 S/m.
With `O` [water] + CCCCC(CC)COC(=O)CC(C(=O)OCC(CC)CCCC)S(=O)(=O)[O-].[Na+] the electrical conductivity (m2 = 0) was 0.000327 ± 1.3e-05 S/m.
